# Assay results from patent US20200107549A1, “Enhancement of seed germination and plant growth under conditions of stress with pterostilbene, ellagic acid, nicotinamide riboside, and their combinations” (priority 2018, published 2020).
# Test system: rice seeds
# Experiment: rice seed germination in artificial paddy
# Type: in vivo, Oryza sativa (Rice)
# Settings: seeds incubated in 1 micromolar NR; water deprivation paddy, 37 seeds; only 1 seed germinated in that paddy's control
# Procedure: Conditions of “water deprivation” in this specification refers to the administration of less water than required for a seed to germinate typically. In the experiments described below, seeds subjected to a condition of “water deprivation” were given 2 mL of water 3 times a week, as opposed to 5 mL. In the rice experiment, the seeds subjected to “water deprivation” were not given any water after their planting in the artificial paddy. 5 mL of the solutions of the 3 compounds or combinations was placed in a small size weigh boats, along with water as the control. Up to 50 seeds were placed in the weigh boats. Incubation periods ranged from 18-24 hours at room temperature (recorded range of 55-65° F.). The seeds were then either placed in a germination chamber or planted in potting soil, as described below. For the rice plants, an artificial paddy field was built using two plastic bins filled with soil, and filled with water to a depth of 4 inches. A divider comprising of sticks was placed to delineate the experimental conditions comparing water soaked seeds or NR soaked seeds. In one paddy, water was replenished until germination was observed; the other received no added water. The bins were left outside for a total of 6 weeks; the daily temperatures ranged between 50 F to 95 F, and no rainfall was recorded during the experimental period. […]
structure (smiles),measurement,value
"NC(=O)c1ccc[n+]([C@@H]2O[C@H](CO)[C@@H](O)[C@H]2O)c1 [NR, Nicotinamide riboside]",seeds germinated,32%
